Measurements taken from patent EP0888346B1, “CORALYNE ANALOGS AS TOPOISOMERASE INHIBITORS” (RUTGERS, THE STATE UNIVERSITY OF NEW JERSEY, priority 1996, dated 1997).
≈ marks a conversion by molar mass, not a printed value. Where “and” joins values, the source holds several entries; their conditions need not be identical. Equal entries are not always repeated. Where two headings read alike, the source gives them in different places.

Columns and labels:
[1] = tested on: glioblastoma cell line SF-268; assay: MTA cytotoxicity assay, glioblastoma cells; type: cell-based; conditions: for IC50: Homo sapiens, SF-268, 96 h, read-out: Cytotoxicity SF-268
Protocol: (§1) The results were plotted and the IC50 then measured.
(§2) The coralyne analog 7c was tested for its effectiveness against glioblastoma cells. The assay used was similar to that described above for the RPMI-8402 cell line. The results are shown in table 2 below which compares the effect of Compound 7c against the leukemia cell line (RPMI 8402), epidermal carncinoma (KB3-1) and glioblastoma (SF-268): Table 2

[2] = tested on: Human lymphoblast RPMI 8402 cells; assay: MTT-microtiter plate tetrazolinium cytotoxicity assay (MTA); type: cell-based; conditions: for IC50: Homo sapiens, RPMI 8402, 96 h
Source text: as §1

[3] = tested on: calf thymus topoisomerase II; assay: Topo II cleavage assay (plasmid YEpG DNA); type: biochemical; conditions: concentration relative to VM-26 = 1 producing the same cleavage on the plasmid DNA
Source text: The plasmid pET11a and the E. coli strain BL21(DE3) used for enzyme expression were purchased from Novagen. IPTG was purchased from Sigma. The ECL system used for the Western blotting analysis of bacterial lysates was from Amersham (UK). All the restriction enzymes and Vent polymerase were from New England Biolabs. Mammalian topoisomerase II was isolated from calf thymus glands according to the published procedure (Halligan et al., J. Biol. Chem. 260:2475-2482 (1985)). The single copy yeast plasmids YCpGAL1 expressing various topoisomerase I genes in JN2-134 yeast strain were a kind gift of Dr. M-A. Bjornsti (Thomas Jefferson University, Philadelphia, PA). All bacterial and yeast media were from Difco (Detroit, MI), while cell culture media were purchased from Gibco-BRL (Gaithersburg, MD).
(§3) Cleavage assays for the recombinant topoisomerases I and calf thymus topoisomerases I and II were done as described (Liu et al., J. Biol. Chem. 258:15365-15370 (1983)). The plasmid YEpG DNA used for the cleavage assays was prepared and labeled at its 3'-end using the published procedures.

[4] = tested on: camptothecin-resistant CPT-K5 cells; assay: MTT-microtiter plate tetrazolinium cytotoxicity assay (MTA), camptothecin-resistant cells; conditions: Homo sapiens, CPT-K5, 96 h, read-out: Cytotoxicity IC50 CPT-K5
Protocol: The IC50 of the drugs tested were determined by the MTT-microtiter plate tetrazolinium cytotoxicity assay (MTA) (Mosmann, T., J. Immunol. Methods 65:55-63 (1983); Denizot et al., J. Immunol. Methods 89:271-277 (1986)). Human lymphoblast RPMI 8402 cells and their camptothecin-resistant CPT-K5 cells (Andoh et al., Proc. Natl. Acad. Sci., USA 84:5565-5569 (1987)) were kindly provided by Dr. Toshiwo Andoh (Aichi Cancer Center Research Institute, Nagoya, Japan). […] Cells (2000 cells/well, seeded in […] growth medium) were grown in suspension at 37°C in 5% CO2 and maintained by regular passage in RPMI medium supplemented with 10% heat inactivated fetal bovine serum, L-glutamine (2 mM), penicillin (100 U/ml), and streptomycin (0.1 mg/ml). The cells were exposed continuously for 4 days to different drug concentrations, and assayed at the end of the fourth day. Each concentration and the no drug control were repeated at least twice in 6 replica wells. The results were plotted and the IC50 then measured. The drug sensitive human epidermoid carcinoma KB 3-1 cell line and its vinblastine-selected multidrug-resistant variant KB-V1 cells (Akiyama et al., Genetics 11:117-126 (1985)) were kindly provided by Dr. Michael Gottesmann (National Cancer Institute). They were grown as monolayer cultures at 37°C in 5% CO2 and maintained by regular passage in Dulbecco's minimal essential medium supplemented with 10% heat inactivated fetal bovine serum. KB-V1 cells were maintained in the presence of […] vinblastine.

human topoisomerase I = target: T1, human topoisomerase I (Homo sapiens, UniProt P11387); assay: Topo I cleavage assay (plasmid YEpG DNA); type: biochemical; conditions: for Topo I-mediated DNA cleavage (REC, Relative Effective Concentration): concentration relative to camptothecin (CPT) = 1 producing the same cleavage on the plasmid DNA
T1 construct: 15 amino acid vector-derived fusion (pET-11a leader); made in house; host or cells: E. coli BL21(DE3)
T1 sequence (P11387 1-765): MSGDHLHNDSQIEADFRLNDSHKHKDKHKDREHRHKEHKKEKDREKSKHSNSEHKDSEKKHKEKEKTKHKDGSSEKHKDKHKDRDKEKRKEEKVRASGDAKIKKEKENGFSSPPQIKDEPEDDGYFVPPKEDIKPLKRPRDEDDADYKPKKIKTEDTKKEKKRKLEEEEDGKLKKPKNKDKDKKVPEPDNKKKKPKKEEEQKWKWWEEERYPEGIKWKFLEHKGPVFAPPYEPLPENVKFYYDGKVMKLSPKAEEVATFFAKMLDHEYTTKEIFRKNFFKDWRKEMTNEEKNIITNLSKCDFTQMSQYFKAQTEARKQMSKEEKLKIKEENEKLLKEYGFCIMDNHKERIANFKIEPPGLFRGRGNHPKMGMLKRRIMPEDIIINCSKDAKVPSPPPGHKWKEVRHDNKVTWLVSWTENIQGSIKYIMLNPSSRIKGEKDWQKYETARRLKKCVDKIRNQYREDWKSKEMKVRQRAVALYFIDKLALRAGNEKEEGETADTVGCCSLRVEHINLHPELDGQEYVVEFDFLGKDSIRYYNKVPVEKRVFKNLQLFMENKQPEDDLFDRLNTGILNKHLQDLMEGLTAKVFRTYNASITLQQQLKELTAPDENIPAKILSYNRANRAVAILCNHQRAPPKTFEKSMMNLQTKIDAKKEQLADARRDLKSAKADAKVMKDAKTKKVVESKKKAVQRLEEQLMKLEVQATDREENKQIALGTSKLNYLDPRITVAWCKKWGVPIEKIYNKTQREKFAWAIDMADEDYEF
Source text: To obtain large quantity of human topoisomerase I, the human topoisomerase I cDNA was cloned into the pET-11a vector, in which transcription of the cDNA is under the control of the inducible T7 promoter (Studier et al., Methods in Enzymol., Vol. 185:60-89, San Diego: Academic Press (1990)). Briefly, a 3.4 kb DNA fragment containing the entire coding sequence of human topoisomerase I and approximately 1 kb of untranslated region downstream of the stop codon was isolated from the plasmid YCpGAL1-hTOP1 (Bjornsti et al., Cancer Res. 49:6318-6323 (1989)) by cutting at the BamHI and EcoRI sites. The vector pET-11a was cut with the same restriction enzymes, dephosphorylated and ligated to the insert in the proper reading-frame downstream of the vector cloning site. The ligation mixture was used to transform E. coli, the correct clone pET1B was isolated (see figure 2A for the map) and its identity confirmed by restriction mapping. Since the translational start in pET is positioned at an upstream NdeI site, the expressed topoisomerase I has a 15 amino acid fusion at its N-terminus. pET1B was then transformed into E. coli BL21(DE3), and, upon induction with 0.4 mM IPTG for 1 hour, the bacterial lysate was analyzed by 10 % SDS-PAGE. Expression was confirmed by Western blotting using rabbit antibodies against human topoisomerase I. Isolation of the expressed protein was done by a simple procedure. Briefly, E. coli cells were lysed by repeated sonic bursts. The sonic extract was made in 1 M NaCl and 6% polyethylene glycol (PEG) to remove nucleic acids. The PEG supernatant was chromatographed directly on a hydroxyapatite column. Expressed human DNA topoisomerase I was eluted at the 0.6 M potassium phosphate step. The eluted enzyme was dialyzed against 50% glycerol, 30 mM potassium phosphate (pH 7.0), 1 mM dithiothreitol (DTT) and 0.1 mM EDTA and stored at -20°C.
as §3

[5] = tested on: human epidermoid carcinoma KB 3-1 cell line; assay: MTA cytotoxicity assay, epidermoid carcinoma cells; type: cell-based; conditions: KB 3-1, 96 h
Protocol: as §1, §2

[6] = read-out: Cytotoxicity IC50 RPMI

With `COc1cc2cc3[n+](c(C)c2cc1OC)CCc1c-3ccc2c1OCO2` [Compound 7c, 5,6-Dihydro-8-methyl-3,4-methylenedioxy-10,11-dimethoxydibenzo[a,g]quinolizinium acetosulfate] the “cytotoxicity against glioblastoma cells (in words)” value [1] was “exceptional cytotoxicity”, the IC50 [1] was 0.008 µg/mL and the IC50 [2, 6] was 0.6 µM. For the same molecule, the IC50 ([2]; read-out: Cytotoxicity RPMI 8402) was 0.3 µg/mL, the “Topo II-mediated DNA cleavage (REC, Relative Effective Concentration)” value [3] was 30 and the IC50 [4] was 6.1 µM. The “Topo I-mediated DNA cleavage (REC, Relative Effective Concentration)” value (human topoisomerase I) was 10 and the IC50 ([5]; read-out: Cytotoxicity KB3-1) was 0.06 µg/mL.
For `COc1cc2cc3[n+](cc2cc1OC)CCc1c-3ccc2c1OCO2.[Cl-]` [Compound 8c, 5,6-Dihydro-3,4-methylenedioxy-10,11-dimethoxydibenzo[a,g]quinolizinium chloride], the IC50 [2, 6] was 8.1 µM, the “Topo II-mediated DNA cleavage (REC, Relative Effective Concentration)” value [3] was 50 and the IC50 [4] was 27 µM. The “Topo I-mediated DNA cleavage (REC, Relative Effective Concentration)” value (human topoisomerase I) was 1 and the EC (total cleavage) (human topoisomerase I; read-out: concentration giving total cleavage of DNA in the presence of topoisomerase I) was 0.27 µM and 0.1 µg/mL.
With `COc1ccc(Cc2nccc3cc(OC)c(OC)cc23)cc1OC` [Compound 9a] the IC50 ([2]; 4 days of continuous drug exposure, read-out: Cytotoxicity IC50 RPMI) was 24 µM, the “Topo II-mediated DNA cleavage (REC, Relative Effective Concentration)” value [3] was 1000 and the IC50 [4] was 29 µM. For the same molecule, the “Topo I-mediated DNA cleavage (REC, Relative Effective Concentration)” value (human topoisomerase I) was over 1000.
For `COc1ccc(Cc2nccc3c(OC)c(OC)ccc23)cc1OC.Cl` [Compound 9b, 5,6-Dimethoxy-1-(3,4-dimethoxybenzyl)isoquinoline hydrochloride], the IC50 [2, 6] was 15 µM, the “Topo II-mediated DNA cleavage (REC, Relative Effective Concentration)” value [3] was 1000 and the IC50 [4] was 15 µM. The “Topo I-mediated DNA cleavage (REC, Relative Effective Concentration)” value (human topoisomerase I) was over 1000.
`COc1ccc(Cc2nccc3c4c(ccc23)OCO4)cc1OC` [Compound 9c, 5,6-Methylenedioxy-1-(3,4-dimethoxybenzyl)isoquinoline] was tested, and the “cytotoxicity against RPMI 8402 cells (in words)” value [2] was “appreciable cytotoxicity”, the IC50 [2, 6] was 9.3 µM and the “Topo II-mediated DNA cleavage (REC, Relative Effective Concentration)” value [3] was over 1000. The IC50 [4] was 15 µM and the “Topo I-mediated DNA cleavage (REC, Relative Effective Concentration)” value (human topoisomerase I) was over 1000.
With `COc1cc2cc3c4cc(OC)c(OC)cc4cc[n+]3cc2cc1OC.[Cl-]` [Compound 10a, 2,3,10,11-Tetramethoxydibenzo[a,g]quinolizinium chloride] the IC50 [2, 6] was 13 µM, the “Topo II-mediated DNA cleavage (REC, Relative Effective Concentration)” value [3] was 10 and the IC50 [4] was over 32 µM. The “Topo I-mediated DNA cleavage (REC, Relative Effective Concentration)” value (human topoisomerase I) was 1000.
In the case of `COc1cc2cc3c4ccc(OC)c(OC)c4cc[n+]3cc2cc1OC.[Cl-]` [Compound 10b, 3,4,10,11-Tetramethoxydibenzo[a,g]quinolizinium chloride], the IC50 [2, 6] is reported as 2.6 µM, the “Topo II-mediated DNA cleavage (REC, Relative Effective Concentration)” value [3] is reported as 100 and the IC50 [4] is reported as 5.2 µM. The “Topo I-mediated DNA cleavage (REC, Relative Effective Concentration)” value (human topoisomerase I) was over 1000.
In the case of `COc1cc2cc3c4ccc5c(c4cc[n+]3cc2cc1OC)OCO5.[Cl-]` [Compound 10c, 3,4-Methylenedioxy-10,11-dimethoxydibenzo[a,g]quinolizinium chloride], the IC50 [2, 6] is reported as 0.8 µM, the “Topo II-mediated DNA cleavage (REC, Relative Effective Concentration)” value [3] is reported as 2 and the IC50 [4] is reported as 6.8 µM. The “Topo I-mediated DNA cleavage (REC, Relative Effective Concentration)” value (human topoisomerase I) was 10.
For `COc1cc2cc(-c3ccc4c(c3)OCO4)nc(C)c2cc1OC` [Compound 12b, 6,7-Dimethoxy-1-methyl-3-(3,4-methylenedioxyphenyl)isoquinoline], the IC50 [2, 6] was 22 µM, the “Topo II-mediated DNA cleavage (REC, Relative Effective Concentration)” value [3] was over 1000 and the IC50 [4] was 31 µM. The “Topo I-mediated DNA cleavage (REC, Relative Effective Concentration)” value (human topoisomerase I) was 1000.
In the case of `Cc1nc(-c2ccc(O)c(O)c2)cc2cc(O)c(O)cc12` [Compound 13, 6,7-Dihydroxy-1-methyl-3-(3,4-dihydroxyphenyl)isoquinoline], the “cytotoxicity against RPMI 8402 cells (in words)” value [2] is reported as “appreciable cytotoxicity”, the IC50 [2, 6] is reported as 7.1 µM and the “Topo II-mediated DNA cleavage (REC, Relative Effective Concentration)” value [3] is reported as over 1000. The IC50 [4] was 99 µM and the “Topo I-mediated DNA cleavage (REC, Relative Effective Concentration)” value (human topoisomerase I) was over 1000.
For `COc1cc([C@@H]2c3cc4c(cc3[C@@H](O[C@@H]3O[C@@H]5CO[C@@H](c6cccs6)O[C@H]5[C@H](O)[C@H]3O)[C@H]3COC(=O)[C@H]23)OCO4)cc(OC)c1O` [VM-26, reference compound], the IC50 [2, 6] was 0.3 µM, the “Topo II-mediated DNA cleavage (REC, Relative Effective Concentration)” value [3] was 1 and the IC50 [4] was 0.5 µM. The “Topo I-mediated DNA cleavage (REC, Relative Effective Concentration)” value (human topoisomerase I) was over 1000.
Work on `COc1cccc2c1C(=O)c1c(O)c3c(c(O)c1C2=O)C[C@@](O)(C(=O)CO)C[C@@H]3O[C@H]1C[C@H](N)[C@H](O)[C@H](C)O1` [doxorubicine] yielded an IC50 ([1]; glioblastoma, Table 2) of 0.8 µg/mL (≈ 1.47 µM), an IC50 ([2]; leukemia cell line, Table 2, read-out: Cytotoxicity RPMI 8402) of 0.8 µg/mL and an IC50 ([5]; epidermal carcinoma, Table 2, read-out: Cytotoxicity KB3-1) of 0.1 µg/mL (≈ 0.184 µM).
